ChEMBL document CHEMBL4346715, “Antibacterial activity study of 1,2,4-triazole derivatives” (Eur J Med Chem, 2019)
Converted amounts (≈) assume the structure as drawn.

Assays:
Pseudomonas aeruginosa [1] = assay: Antibacterial activity against Pseudomonas aeruginosa ATCC 27853 after 24 hrs by broth microdilution method; format: functional; conditions: ATCC 27853, 24 h
Listeria monocytogenes [2] = assay: Potency index, ratio of ciprofloxacin MIC to test compound MIC for Listeria monocytogenes ATCC 35152 after 24 hrs by broth microdilution method; format: functional
Listeria monocytogenes [3] = assay: Antibacterial activity against Listeria monocytogenes ATCC 35152 after 24 hrs by broth microdilution method; format: functional; conditions: ATCC 35152, 24 h
Pseudomonas aeruginosa [4] = assay: Potency index, ratio of ciprofloxacin MIC to test compound MIC for Pseudomonas aeruginosa ATCC 27853 after 24 hrs by broth microdilution method; format: functional
Staphylococcus aureus [5] = assay: Antibacterial activity against Staphylococcus aureus; format: functional
Bacillus anthracis = assay: Antibacterial activity against Bacillus anthracis incubated for 18 hrs post 30 mins pre-diffusion by disk diffusion method; format: functional
Staphylococcus aureus [6] = assay: Antibacterial activity against methicillin-resistant Staphylococcus aureus incubated for 18 hrs post 30 mins pre-diffusion by disk diffusion method; format: functional
Pseudomonas aeruginosa [7] = assay: Antibacterial activity against Pseudomonas aeruginosa; format: functional
Candida albicans [8] = assay: Antifungal activity against Candida albicans; format: functional
Aspergillus niger = assay: Antifungal activity against Aspergillus niger; format: functional
Staphylococcus aureus [9] = assay: Antibacterial activity against Staphylococcus aureus ATCC 49444 after 24 hrs by broth microdilution method; format: functional; conditions: ATCC 49444, 24 h
Salmonella typhimurium = assay: Antibacterial activity against Salmonella typhimurium ATCC 14028 after 24 hrs by broth microdilution method; format: functional, Salmonella enterica subsp. enterica serovar Typhimurium; conditions: Salmonella enterica, ATCC 14028, 24 h
Escherichia coli [10] = assay: Antibacterial activity against Escherichia coli after 24 hrs by broth microdilution method; format: functional
Aspergillus brasiliensis = assay: Antifungal activity against Aspergillus brasiliensis ATCC 16404 after 24 hrs by microdilution method; format: functional; conditions: ATCC 16404, 24 h
Bacillus cereus = assay: Antibacterial activity against Bacillus cereus ATCC 10876 after 24 hrs by microdilution method; format: functional; conditions: ATCC 10876, 24 h
Staphylococcus aureus [11] = assay: Antibacterial activity against Staphylococcus aureus ATCC 25923 after 24 hrs by microdilution method; format: functional; conditions: ATCC 25923, 24 h
Pseudomonas aeruginosa [12] = assay: Antibacterial activity against Pseudomonas aeruginosa ATCC 27853 after 24 hrs by microdilution method; format: functional; conditions: ATCC 27853, 24 h
Proteus mirabilis = assay: Antibacterial activity against Proteus mirabilis ATCC 35659 after 24 hrs by microdilution method; format: functional; conditions: ATCC 35659, 24 h
Enterococcus faecalis = assay: Antibacterial activity against Enterococcus faecalis ATCC 29212 after 24 hrs by microdilution method; format: functional; conditions: ATCC 29212, 24 h
Candida albicans [13] = assay: Antifungal activity against Candida albicans ATCC 50193 after 24 hrs by microdilution method; format: functional; conditions: ATCC 50193, 24 h
Escherichia coli [14] = assay: Antibacterial activity against Escherichia coli ATCC 25922 after 24 hrs by microdilution method; format: functional; conditions: ATCC 25922, 24 h

SMILES	MIC (Aspergillus brasiliensis) [µg/mL]	MIC (Bacillus cereus) [µg/mL]	MIC (Staphylococcus aureus [11]) [µg/mL]	MIC (Pseudomonas aeruginosa [12]) [µg/mL]	MIC (Proteus mirabilis) [µg/mL]	MIC (Enterococcus faecalis) [µg/mL]	MIC (Candida albicans [13]) [µg/mL]	MIC (Escherichia coli [14]) [µg/mL]	further results
Cc1nc(-c2ccccc2)sc1-c1nnc(S)n1/N=C/c1cccs1									MIC (Pseudomonas aeruginosa [1]): 1.95 µg/mL (≈ 5.08 µM); Ratio (Listeria monocytogenes [2]): 2; MIC (Listeria monocytogenes [3]): 1.95 µg/mL (≈ 5.08 µM); Ratio (Pseudomonas aeruginosa [4]): 2
CCn1cc(C(=O)O)c(=O)c2cc(F)c(N3CCNCC3)cc21 [NORFLOXACIN]									MIC (Staphylococcus aureus [5]): 14.1 µg/mL (≈ 44.2 µM); MIC (Bacillus anthracis): 31 to 1000 µg/mL (≈ 97.1 to 3130 µM); MIC (Staphylococcus aureus [6]): 31 to 1000 µg/mL (≈ 97.1 to 3130 µM); MIC (Pseudomonas aeruginosa [7]): 11.7 µg/mL (≈ 36.6 µM); MIC (Candida albicans [8]): 7.8 µg/mL (≈ 24.4 µM); MIC (Aspergillus niger): 10.2 µg/mL (≈ 31.9 µM)
Cc1nc(-c2ccccc2)sc1-c1nnc(S)n1/N=C/c1cccc(Cl)c1Cl									MIC (Pseudomonas aeruginosa [1]): 1.95 to 62.5 µg/mL (≈ 4.37 to 140 µM); MIC (Staphylococcus aureus [9]): 1.95 to 62.5 µg/mL (≈ 4.37 to 140 µM); MIC (Salmonella typhimurium): 1.95 to 62.5 µg/mL (≈ 4.37 to 140 µM); MIC (Listeria monocytogenes [3]): 1.95 to 62.5 µg/mL (≈ 4.37 to 140 µM); MIC (Escherichia coli [10]): 1.95 to 62.5 µg/mL (≈ 4.37 to 140 µM)
CCCCCCCCCCCCCCCCn1nnc(-c2n[nH]c(=S)n2-c2ccccc2)c1-c1n[nH]c(=S)n1-c1ccccc1	1 to 128 (≈ 1.55 to 199 µM)	1 to 128 (≈ 1.55 to 199 µM)	1 to 128 (≈ 1.55 to 199 µM)	1 to 128 (≈ 1.55 to 199 µM)	1 to 128 (≈ 1.55 to 199 µM)	1 to 128 (≈ 1.55 to 199 µM)	1 to 128 (≈ 1.55 to 199 µM)	1 to 128 (≈ 1.55 to 199 µM)	
CCCCCCCCCCCCn1nnc(-c2n[nH]c(=S)n2N)c1-c1n[nH]c(=S)n1N	1 to 128 (≈ 2.15 to 275 µM)	1 to 128 (≈ 2.15 to 275 µM)	1 to 128 (≈ 2.15 to 275 µM)	1 to 128 (≈ 2.15 to 275 µM)	1 to 128 (≈ 2.15 to 275 µM)	1 to 128 (≈ 2.15 to 275 µM)	1 to 128 (≈ 2.15 to 275 µM)	1 to 128 (≈ 2.15 to 275 µM)	
CCCCCCCCCCCCCCn1nnc(-c2n[nH]c(=S)n2N)c1-c1n[nH]c(=S)n1N	1 to 16 (≈ 2.03 to 32.4 µM)	1 to 16 (≈ 2.03 to 32.4 µM)	1 to 16 (≈ 2.03 to 32.4 µM)	1 to 16 (≈ 2.03 to 32.4 µM)	1 to 16 (≈ 2.03 to 32.4 µM)	1 to 16 (≈ 2.03 to 32.4 µM)	1 to 16 (≈ 2.03 to 32.4 µM)	1 to 16 (≈ 2.03 to 32.4 µM)	
CCCCCCCCCCn1nnc(-c2n[nH]c(=S)n2-c2ccccc2)c1-c1n[nH]c(=S)n1-c1ccccc1	1 to 128 (≈ 1.79 to 229 µM)	1 to 128 (≈ 1.79 to 229 µM)	1 to 128 (≈ 1.79 to 229 µM)	1 to 128 (≈ 1.79 to 229 µM)	1 to 128 (≈ 1.79 to 229 µM)	1 to 128 (≈ 1.79 to 229 µM)	1 to 128 (≈ 1.79 to 229 µM)	1 to 128 (≈ 1.79 to 229 µM)	
CCCCCCCCCCCCCCn1nnc(-c2n[nH]c(=S)n2-c2ccccc2)c1-c1n[nH]c(=S)n1-c1ccccc1	1 to 128 (≈ 1.62 to 208 µM)	1 to 128 (≈ 1.62 to 208 µM)	1 to 128 (≈ 1.62 to 208 µM)	1 to 128 (≈ 1.62 to 208 µM)	1 to 128 (≈ 1.62 to 208 µM)	1 to 128 (≈ 1.62 to 208 µM)	1 to 128 (≈ 1.62 to 208 µM)	1 to 128 (≈ 1.62 to 208 µM)	
CC[C@H]1OC(=O)[C@H](C)[C@@H](O[C@H]2C[C@@](C)(OC)[C@@H](O)[C@H](C)O2)[C@H](C)[C@@H](O[C@@H]2O[C@H](C)C[C@H](N(C)C)[C@H]2O)[C@](C)(O)C[C@@H](C)C(=O)[C@H](C)[C@@H](O)[C@]1(C)O [ERYTHROMYCIN]									MIC (Bacillus anthracis): 31 to 1000 µg/mL (≈ 42.2 to 1360 µM); MIC (Staphylococcus aureus [6]): 31 to 1000 µg/mL (≈ 42.2 to 1360 µM)
